The values below are quoted from earlier work in US20170304196A1, “ORALLY DISINTEGRATING TABLET AND METHOD FOR PRODUCING SAME” (FUJIFILM CORPORATION, priority 2015, published 2017).

For the data set the following is noted: anionic substance.

Broadly, the pKa is the pH at which an ionisable group is half protonated. Regarding `CCCCCCCCCCCCOS(=O)(=O)[O-].[Na+]` [sodium lauryl sulfate], the pKa is 1.9.
